This passage reports IC50 results from US11919901B2 (Syndax Pharmaceuticals, Inc., priority 2021, dated 2024).

The experiment relates to MV4-11 cells. The experiment is described as follows: Cell proliferation assay MV4;11 (CellTiter-Glo, 72 hours). It counts as cell-based. As to conditions: Homo sapiens; MV4;11 leukemia cell line, 72 hours; read-out: MV4; 11 IC50. The procedure, abridged: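 MV4-11 cells (MLL1-AF4 fusion) exposed 72 h at 37 °C to 8 compound concentrations, final 0.632–2000 nM. Viability by CellTiter-Glo luminescence as % of vehicle RLU; % max inhibition = 100 − viability at top concentration.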
Background: Cellular ATP, detected with luciferase, serves as a proxy for viable cell number.

Each structure is given as a SMILES string.

Regarding `CC(C)N(C(=O)c1cc(F)ccc1Oc1cncnc1N1CC2(CCN(C[C@@H]3CC[C@@H](NS(=O)(=O)N4CCC4)CO3)CC2)C1)[C@@H]1CCOC1` [Example 168, 2-((4-(7-(((2S,5R)-5-(Azetidine-1-sulfonamido)tetrahydro-2H-pyran-2-yl)methyl)-2,7-diazaspiro[3.5]nonan-2-yl)pyrimidin-5-yl)oxy)-5-fluoro-N-isopropyl-N-((R)-tetrahydrofuran-3-yl)benzamide], the IC50 is below 100 nM. `CC(C)N(C(=O)c1cc(F)ccc1Oc1cncnc1N1CC2(CCN(C[C@@H]3CC[C@@H](NS(=O)(=O)N4CCCC4)CO3)CC2)C1)[C@@H]1CCOC1` [Example 169, 5-Fluoro-N-isopropyl-2-((4-(7-(((2S,5R)-5-(pyrrolidine-1-sulfonamido)tetrahydro-2H-pyran-2-yl)methyl)-2,7-diazaspiro[3.5]nonan-2-yl)pyrimidin-5-yl)oxy)-N-((R)-tetrahydrofuran-3-yl)benzamide]: the IC50 is below 100 nM. With `CCN(C)S(=O)(=O)N[C@@H]1CC[C@@H](CN2CCC3(CC2)CN(c2ncncc2Oc2ccc(F)cc2C(=O)N(C(C)C)[C@@H]2CCOC2)C3)OC1` [Example 170, 2-((4-(7-(((2S,5R)-5-((N-Ethyl-N-methylsulfamoyl)amino)tetrahydro-2H-pyran-2-yl)methyl)-2,7-diazaspiro[3.5]nonan-2-yl)pyrimidin-5-yl)oxy)-5-fluoro-N-isopropyl-N-((R)-tetrahydrofuran-3-yl)benzamide] the figure was below 100 nM; with `CC(C)N(C(=O)c1cc(F)ccc1Oc1cncnc1N1CC2(CCN(C[C@@H]3CC[C@@H](NS(=O)(=O)NCC(F)(F)F)CO3)CC2)C1)[C@@H]1CCOC1` [Example 171, 5-Fluoro-N-isopropyl-N-((R)-tetrahydrofuran-3-yl)-2-((4-(7-(((2S,5R)-5-((N-(2,2,2-trifluoroethyl)sulfamoyl)amino)tetrahydro-2H-pyran-2-yl)methyl)-2,7-diazaspiro[3.5]nonan-2-yl)pyrimidin-5-yl)oxy)benzamide], below 100 nM; with `CCNS(=O)(=O)N[C@@H]1CC[C@@H](CN2CCC3(CC2)CN(c2ncncc2Oc2ccc(F)cc2C(=O)N(C(C)C)[C@@H]2CCOC2)C3)OC1` [Example 172, 2-((4-(7-(((2S,5R)-5-((N-ethylsulfamoyl)amino)tetrahydro-2H-pyran-2-yl)methyl)-2,7-diazaspiro[3.5]nonan-2-yl)pyrimidin-5-yl)oxy)-5-fluoro-N-isopropyl-N-((R)-tetrahydrofuran-3-yl)benzamide], below 100 nM.

On to `CC(C)N(C(=O)c1cc(F)ccc1Oc1cncnc1N1CC2(CCN(C[C@@H]3CC[C@@H](NS(C)(=O)=O)CO3)CC2)C1)[C@H]1CCOC1` [Example 173, 5-Fluoro-N-isopropyl-2-((4-(7-(((2S,5R)-5-(methylsulfonamido)tetrahydro-2H-pyran-2-yl)methyl)-2,7-diazaspiro[3.5]nonan-2-yl)pyrimidin-5-yl)oxy)-N-((S)-tetrahydrofuran-3-yl)benzamide], for which the IC50 is below 100 nM.

Consider `CC(C)N(C(=O)c1cc(F)ccc1Oc1cncnc1N1CC2(CCN(C[C@@H]3CC[C@@H](NS(=O)(=O)C(C)C)CO3)CC2)C1)[C@H]1CCOC1` [Example 174, 5-Fluoro-N-isopropyl-2-((4-(7-(((2S,5R)-5-((1-methylethyl)sulfonamido)tetrahydro-2H-pyran-2-yl)methyl)-2,7-diazaspiro[3.5]nonan-2-yl)pyrimidin-5-yl)oxy)-N-((S)-tetrahydrofuran-3-yl)benzamide], for which the IC50 is below 100 nM. In the case of `CCN(CC)S(=O)(=O)N[C@@H]1CC[C@@H](CN2CCC3(CC2)CN(c2ncncc2Oc2ccc(F)cc2C(=O)N(C(C)C)[C@H]2CCOC2)C3)OC1` [Example 175, 2-((4-(7-(((2S,5R)-5-((N,N-Diethylsulfamoyl)amino)tetrahydro-2H-pyran-2-yl)methyl)-2,7-diazaspiro[3.5]nonan-2-yl)pyrimidin-5-yl)oxy)-5-fluoro-N-isopropyl-N-((S)-tetrahydrofuran-3-yl)benzamide] it was below 100 nM; in that of `CC(C)N(C(=O)c1cc(F)ccc1Oc1cncnc1N1CC2(CCN(C[C@@H]3CC[C@@H](NS(=O)(=O)C4CC4)CO3)CC2)C1)[C@H]1CCOC1` [Example 176, 2-((4-(7-(((2S,5R)-5-(Cyclopropanesulfonamido)tetrahydro-2H-pyran-2-yl)methyl)-2,7-diazaspiro[3.5]nonan-2-yl)pyrimidin-5-yl)oxy)-5-fluoro-N-isopropyl-N-((S)-tetrahydrofuran-3-yl)benzamide], below 100 nM; in that of `CC(C)N(C(=O)c1cc(F)ccc1Oc1cncnc1N1CC2(CCN(C[C@@H]3CC[C@@H](NS(=O)(=O)N(C)C)CO3)CC2)C1)[C@H]1CCOC1` [Example 177, 2-((4-(7-(((2S,5R)-5-((N,N-Dimethylsulfamoyl)amino)tetrahydro-2H-pyran-2-yl)methyl)-2,7-diazaspiro[3.5]nonan-2-yl)pyrimidin-5-yl)oxy)-5-fluoro-N-isopropyl-N-((S)-tetrahydrofuran-3-yl)benzamide], below 100 nM. For `CC(C)N(C(=O)c1cc(F)ccc1Oc1cncnc1N1CC2(CCN(C[C@@H]3CC[C@@H](NS(=O)(=O)N4CCCC4)CO3)CC2)C1)[C@H]1CCOC1` [Example 178, 5-Fluoro-N-isopropyl-2-((4-(7-(((2S,5R)-5-(pyrrolidine-1-sulfonamido)tetrahydro-2H-pyran-2-yl)methyl)-2,7-diazaspiro[3.5]nonan-2-yl)pyrimidin-5-yl)oxy)-N-((S)-tetrahydrofuran-3-yl)benzamide], the IC50 was below 100 nM. `CCN(C)S(=O)(=O)N[C@@H]1CC[C@@H](CN2CCC3(CC2)CN(c2ncncc2Oc2ccc(F)cc2C(=O)N(C(C)C)[C@H]2CCOC2)C3)OC1` [Example 179, 2-((4-(7-(((2S,5R)-5-((N-Ethyl-N-methylsulfamoyl)amino)tetrahydro-2H-pyran-2-yl)methyl)-2,7-diazaspiro[3.5]nonan-2-yl)pyrimidin-5-yl)oxy)-5-fluoro-N-isopropyl-N-((S)-tetrahydrofuran-3-yl)benzamide]: the IC50 is below 100 nM. On to `CCNS(=O)(=O)N[C@@H]1CC[C@@H](CN2CCC3(CC2)CN(c2ncncc2Oc2ccc(F)cc2C(=O)N(C(C)C)[C@H]2CCOC2)C3)OC1` [Example 180, 2-((4-(7-(((2S,5R)-5-((N-Ethylsulfamoyl)amino)tetrahydro-2H-pyran-2-yl)methyl)-2,7-diazaspiro[3.5]nonan-2-yl)pyrimidin-5-yl)oxy)-5-fluoro-N-isopropyl-N-((S)-tetrahydrofuran-3-yl)benzamide], for which the IC50 was below 100 nM.

In the case of `CC(C)N(CC#N)C(=O)c1cc(F)ccc1Oc1cncnc1N1CC2(CCN(C[C@@H]3CC[C@@H](NS(=O)(=O)N(C)C)CO3)CC2)C1` [Example 181, N-(Cyanomethyl)-2-((4-(7-(((2S,5R)-5-((N,N-dimethylsulfamoyl)amino)tetrahydro-2H-pyran-2-yl)methyl)-2,7-diazaspiro[3.5]nonan-2-yl)pyrimidin-5-yl)oxy)-5-fluoro-N-isopropylbenzamide], the IC50 was below 100 nM. In the case of `CC(C)N(CC#N)C(=O)c1cc(F)ccc1Oc1cncnc1N1CC2(CCN(C[C@@H]3CC[C@@H](NS(=O)(=O)N4CCC4)CO3)CC2)C1` [Example 182, 2-((4-(7-(((2S,5R)-5-(Azetidine-1-sulfonamido)tetrahydro-2H-pyran-2-yl)methyl)-2,7-diazaspiro[3.5]nonan-2-yl)pyrimidin-5-yl)oxy)-N-(cyanomethyl)-5-fluoro-N-isopropylbenzamide] it was below 100 nM.
